Patent US5486597A, “Tetrapeptide derivatives and analogues” (James Black Foundation Limited, priority 1990, dated 1996)
Non-standard residues stand in square brackets, D forms with d. Residues, ends and D or L forms follow the SMILES beside them. *: point of attachment. Phe(4-Cl) = N[C@@H](Cc1ccc(Cl)cc1)C(=O)O; αMeW = C[C@](N)(Cc1c[nH]c2ccccc12)C(=O)O; 1Nal = N[C@@H](Cc1cccc2ccccc12)C(=O)O; 2Nal = N[C@@H](Cc1ccc2ccccc2c1)C(=O)O; d1Nal = N[C@H](Cc1cccc2ccccc12)C(=O)O; d2Nal = N[C@H](Cc1ccc2ccccc2c1)C(=O)O; Fmoc = O=C(OCC1c2ccccc2-c2ccccc21)*; Boc = CC(C)(C)OC(=O)*; For = O=C*

Tests used:
Type in all cases: cell-based
gastrin receptor [1] = molecular target: T1, gastrin receptor (Cavia porcellus, UniProt H0VZC5); experiment: guinea-pig fundus assay for gastrin activity (stomach muscle strips); details: 10^-8 M devazepide present, 60 minute equilibration, agonist e.g. pentagastrin, standard errors less than 5%
T1 construct: Strips of muscle (approximately 2.5 cm by 1 cm) are removed from the proximal area of the stomach; from tissue; host or cells: guinea-pig proximal stomach (fundus) muscle strips
T1 sequence (H0VZC5 1-426): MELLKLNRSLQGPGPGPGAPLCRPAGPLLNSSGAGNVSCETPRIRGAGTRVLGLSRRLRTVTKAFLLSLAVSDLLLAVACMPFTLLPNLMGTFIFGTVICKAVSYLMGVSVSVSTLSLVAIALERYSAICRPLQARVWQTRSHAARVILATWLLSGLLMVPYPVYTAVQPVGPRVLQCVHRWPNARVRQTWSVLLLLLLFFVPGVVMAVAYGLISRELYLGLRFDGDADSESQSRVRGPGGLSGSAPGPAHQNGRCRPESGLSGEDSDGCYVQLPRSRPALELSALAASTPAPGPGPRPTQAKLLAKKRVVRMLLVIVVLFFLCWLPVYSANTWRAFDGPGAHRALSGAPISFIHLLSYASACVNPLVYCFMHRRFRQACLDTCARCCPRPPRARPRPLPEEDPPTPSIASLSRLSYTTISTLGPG
Method: The compounds were assayed for gastrin activity using the mouse stomach assay as described by Black, J. W. and Shankley, N. P., Br. J. Pharmacol., 86, 571-579, (1985), and also in the guinea-pig fundus assay, as follows:
The stomach is removed from a male Dunkin-Hartley guinea-pig (250-500 g), and Krebs solution is injected through a hypodermic needle under the top stomach muscle layer. The composition (mM) of the Krebs solution is as follows: Na^+ 143, K^+ 5.9, Ca^2+ 2.5, Mg^2+ 1.2, Cl^- 128, H2 PO4^- 2.2, HCO3^- 24.9, SO4^2- 1.2, dextrose 10. Strips of muscle (approximately 2.5 cm by 1 cm) are removed from the proximal area of the stomach (one from each side) and tied with cotton thread to isotonic transducers under an initial loading tension of 0.35 g.
The preparation is immersed in 20 mls of Krebs solution containing 10^-8 M devazepide (25 μl 2×10^-3 M devazepide/100% DMF solution in 5 dm^3 Krebs) and gassed with 95% O2 /5% CO2. The function of the devazepide is to block possible effects at CCK receptors present in the tissue.
The preparation is washed twice over a 60 minute period then 10 mM KCl is added. At 90 minutes, test compounds (ie. potential antagonists) are added and a further 60 minute equilibration period allowed. After this time, cumulative agonist (e.g. pentagastrin) dose-response curves are constructed.

gastrin receptor [2] = molecular target: T2, gastrin receptor (Mus musculus, UniProt P56481); experiment: mouse stomach assay for gastrin activity (isolated stomach, acid secretion); details: for pKB mouse stomach / Kb: isolated mouse stomach assay, gastrin antagonism, standard errors less than 5%; for Acid seretion at 10^-5 M test compound, relative to pentagastrin (%): mouse stomach, NS = not significant; for Kb: read-out: pKB mouse stomach (converted)
T2 construct: assayed for gastrin activity using the mouse stomach assay; from tissue; host or cells: isolated mouse stomach
T2 sequence (P56481 1-453): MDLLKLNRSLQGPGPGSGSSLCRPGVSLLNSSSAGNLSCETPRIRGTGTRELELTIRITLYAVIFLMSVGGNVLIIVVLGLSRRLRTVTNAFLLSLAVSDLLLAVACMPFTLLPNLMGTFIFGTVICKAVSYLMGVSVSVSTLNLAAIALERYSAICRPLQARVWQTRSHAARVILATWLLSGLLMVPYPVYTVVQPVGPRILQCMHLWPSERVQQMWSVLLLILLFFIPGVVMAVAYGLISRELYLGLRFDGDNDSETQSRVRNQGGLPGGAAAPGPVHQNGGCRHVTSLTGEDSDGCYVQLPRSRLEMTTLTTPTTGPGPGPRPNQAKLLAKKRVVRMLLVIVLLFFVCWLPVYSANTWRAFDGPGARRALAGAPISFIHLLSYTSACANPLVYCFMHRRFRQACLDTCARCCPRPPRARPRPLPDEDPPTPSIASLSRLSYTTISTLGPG
Method: The compounds were assayed for gastrin activity using the mouse stomach assay as described by Black, J. W. and Shankley, N. P., Br. J. Pharmacol., 86, 571-579, (1985), and also in the guinea-pig fundus assay, as follows: […]

[3] = molecular target: T3, cholecystokinin receptors (Cavia porcellus, UniProt Q63931); experiment: CCK-antagonist activity in isolated guinea-pig gall-bladder strip preparations; details: guinea-pig gall-bladder strips; CCK-8 as agonist; test compound incubated for 60 minutes; standard errors less than 5%
T3 construct: Isolated, strip preparations were prepared from gall-bladders removed from male Dunkin-Hartley guinea-pigs; from tissue; host or cells: guinea-pig gall-bladder strips
T3 sequence (Q63931 1-430): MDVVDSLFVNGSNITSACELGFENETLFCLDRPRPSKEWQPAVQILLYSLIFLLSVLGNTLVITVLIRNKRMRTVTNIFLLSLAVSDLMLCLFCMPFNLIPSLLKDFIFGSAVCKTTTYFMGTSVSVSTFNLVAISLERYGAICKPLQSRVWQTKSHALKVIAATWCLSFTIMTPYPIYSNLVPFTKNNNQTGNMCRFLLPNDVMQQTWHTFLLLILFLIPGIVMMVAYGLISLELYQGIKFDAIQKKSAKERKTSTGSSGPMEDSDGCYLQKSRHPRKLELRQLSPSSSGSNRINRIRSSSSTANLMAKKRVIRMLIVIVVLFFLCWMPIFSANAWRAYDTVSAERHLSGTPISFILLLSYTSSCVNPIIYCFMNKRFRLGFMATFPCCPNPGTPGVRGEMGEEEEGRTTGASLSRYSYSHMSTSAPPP
Method: The compounds of the invention were also assayed for CCK-antagonist activity as follows:
Isolated, strip preparations were prepared from gall-bladders removed from male Dunkin-Hartley guinea-pigs (250-500 g body weight) according to the method of La Morte, W. W., et al., J.P.E.T., 217, (3), 638-644 (1981).
The complete gall-bladder is removed and opened along the longitudinal axis. Strips measuring 3 mm in the longitudinal axis and 1 mm in the transverse axis are cut and then tied with cotton to stainless steel wires. The preparation is connected to a GRASS FTO3 isometric transducer under an initial loading tension of 1 g and is immersed in 20 mls of Krebs solution maintained at 37° C. and gassed with 95% O2 /5% CO2. The Krebs solution is as detailed above in connection with the fundus assay, except that the Ca^2+ concentration is decreased to 0.5 mM. After 30 mins the preparation is washed. Drug addition begins after an initial 90 min stabilisation period. Responses are measured as changes in tension from that immediately prior to any drug addition. Single cumulative agonist concentration-effect curves, using CCK-8 as agonist, are obtained on each preparation in the absence and presence of test compound which has been incubated for 60 minutes. The antagonist activity of the test compound is estimated and expressed as the negative logarithm (base 10) of the equilibrium dissociation constants (pK8) using the modifications of standard competitive analysis described by Black et al., Br. J. Pharmacol.,86,571-579, (1985) and Shankley et al., Br. J. Pharmacol.,94,264-274 (1988).

pKB mouse stomach (gastrin receptor [2]) | Acid seretion at 10^-5 M test compound, relative to pentagastrin (%) (gastrin receptor [2]) | pKB [3] | Compound | other results
 |  |  | CC(C)(C)OC(=O)N[C@@H](Cc1c[nH]c2ccccc12)C(=O)N[C@H](Cc1ccc2ccccc2c1)C(=O)N[C@@H](CC(=O)O)C(=O)N[C@@H](Cc1ccccc1)C(N)=O [Example 3, N-t-Butyloxycarbonyl-L-tryptophyl-D-3-(2-naphthyl)alanyl-L-aspartyl-L-phenylalaninamide] (Boc-W[d2Nal]DF-NH2) | Kb (gastrin receptor [1]): 2.51 µM
 |  |  | CC(C)(C)OC(=O)N[C@@H](Cc1c[nH]c2ccccc12)C(=O)N[C@@H](Cc1cccc2ccccc12)C(=O)N[C@@H](CC(=O)O)C(=O)N[C@@H](Cc1ccccc1)C(N)=O [Example 4, N-t-Butyloxycarbonyl-L-tryptophyl-L-3-(1-naphthyl)alanyl-L-aspartyl-L-phenylalaninamide] (Boc-W[1Nal]DF-NH2) | Kb (gastrin receptor [1]): 1.58 µM
6.6 | 60 | 5.9 | CC(C)(C)OC(=O)N[C@@H](Cc1c[nH]c2ccccc12)C(=O)N[C@@H](Cc1ccc2ccccc2c1)C(=O)N[C@@H](CC(=O)O)C(=O)N[C@@H](Cc1ccc(Cl)cc1)C(N)=O [Example 11, N-t-Butyloxycarbonyl-L-tryptophyl-L-3-(2-naphthyl)alanyl-L-aspartyl-L-(4-chlorophenylalanin)amide] (Boc-W[2Nal]D[Phe(4-Cl)]-NH2) | 
 | 67 |  | NC(=O)[C@H](Cc1ccccc1)NC(=O)[C@H](CC(=O)O)NC(=O)[C@H](Cc1ccc2ccccc2c1)NC(=O)[C@H](Cc1c[nH]c2ccccc12)NC(=O)OCC1c2ccccc2-c2ccccc21 [Example 16, N-9-Fluorenylmethoxycarbonyl-L-tryptophyl-L-3-(2-naphthyl)alanyl-L-aspartyl-L-phenylalaninamide] (Fmoc-W[2Nal]DF-NH2) | Kb (gastrin receptor [2]): 2 µM; Kb [3]: 2.51 µM
5.9 | 44 | 5.5 | CC(C)(C)OC(=O)N[C@@](C)(Cc1c[nH]c2ccccc12)C(=O)N[C@@H](Cc1ccc2ccccc2c1)C(=O)N[C@@H](CC(=O)O)C(=O)N[C@@H](Cc1ccccc1)C(N)=O [Example 17, N-t-Butyloxycarbonyl-a-methyl-tryptophyl-L-3-(2-naphthyl)alanyl-L-aspartyl-L-phenylalaninamide] (Boc-[αMeW][2Nal]DF-NH2) | 
 | 50 |  | CC(C)(C)OC(=O)N[C@@H](Cc1c[nH]c2ccccc12)C(=O)N[C@H](Cc1cccc2ccccc12)C(=O)N[C@@H](CC(=O)O)C(=O)N[C@@H](Cc1ccccc1)C(N)=O [Example 24, N-t-Butyloxycarbonyl-L-tryptophyl-D-3-(1-naphthyl)alanyl-L-aspartyl-L-phenylalaninamide] (Boc-W[d1Nal]DF-NH2) | Kb (gastrin receptor [2]): 0.251 µM; Kb [3]: 0.316 µM
5.3 | 20 | 6.7 | COc1ccc(CCNC(=O)[C@H](CC(=O)O)NC(=O)[C@H](Cc2ccc3ccccc3c2)N(C)C(=O)[C@H](Cc2c[nH]c3ccccc23)NC(=O)OC(C)(C)C)cc1 [Example 59, N-t-Butyloxycarbonyl-L-tryptophyl-N-methyl-L-3-(2-naphthyl)alanyl-L-aspartyl-4-methoxyphenethylamide] | 
5.3 | 20 | 6.4 | CC(C)(C)OC(=O)N[C@@H](Cc1cn(C=O)c2ccccc12)C(=O)N[C@@H](Cc1ccc2ccccc2c1)C(=O)N[C@@H](CC(=O)O)C(=O)N[C@@H](Cc1ccccc1)C(N)=O [Example 60, N-t-Butyloxycarbonyl-L-N^in-formyltryptophyl-L-3-(2-naphthyl)alanyl-L-aspartyl-L-phenylalaninamide] (Boc-W(For)[2Nal]DF-NH2) | 
 |  | 6.4 | N-t-Butyloxycarbonyl-L-tryptophyl-L-3-(2-naphthyl)alanyl-L-aspartyl-2,4-dichlorophenethylamide [Example 37] | 
 |  |  | N-t-Butyloxycarbonyl-L-tryptophyl-L-3-(2-naphthyl)alanyl-L-aspartyl]-3-azaspiro[5.4]decylamide [Example 62] | pKB (gastrin receptor [1]): 5.6
5.5 | 40 | 5.9 | N-t-benzyloxycarbonyl-β-alanyl-L-tryptophyl-L-3-(2-naphthyl)alanyl-L- aspartyl-L-phenylalaninamide [Example 23] | 

Compound | pKB mouse stomach (gastrin receptor [2]) | Acid seretion at 10^-5 M test compound, relative to pentagastrin (%) (gastrin receptor [2]) | pKB [3] | other results
CNC(=O)[C@H](Cc1ccccc1)NC(=O)[C@H](CC(=O)O)NC(=O)[C@H](Cc1ccc2ccccc2c1)NC(=O)[C@H](Cc1c[nH]c2ccccc12)NC(=O)OC(C)(C)C [Example 5, N-t-Butyloxycarbonyl-L-tryptophyl-L-3-(2-naphthyl)alanyl-L-aspartyl-L-phenylalanyl-(N-methyl)amide] (Boc-W[2Nal]DF-NHMe) | 5.6 | 23 | 5.4 | 
NC(=O)[C@H](Cc1ccccc1)NC(=O)[C@H](CC(=O)O)NC(=O)[C@H](Cc1ccc2ccccc2c1)NC(=O)Cc1c[nH]c2ccccc12 [Example 20, Indole-3-acetamido-L-3-(2-naphthyl)alanyl-L-aspartyl-L-phenylalaninamide] | 6.2 | 33 | 6.7 | 
